Results: patent US20200079765A1, “SUBSTITUTED HETEROARYL PYRROLONES AND SALTS THEREOF AND USE THEREOF AS HERBICIDAL ACTIVE SUBSTANCES” (Bayer CropScience Aktiengesellschaft, priority 2016, published 2020)
Each block holds one compound with its values, some of them ahead of it.

What was measured:
photosystem II (PS II) = target: T1, photosystem II (PS II) (Spinacia oleracea, UniProt P69560); test: Measurement of the PS II activity in thylakoid membranes (DCPIP reduction, Experimental Part 3, Table E1); format: biochemical; settings: spinach thylakoid membranes
T1 construct: the chloroplasts were osmotically ruptured and the thylakoid membranes were then obtained by centrifugation; from tissue; host or cells: thylakoid membranes from fresh spinach leaves
Method: Cooled fresh spinach leaves were comminuted and homogenized in 50 mM phosphate buffer, pH 6.8. 10 mM KCl, 0.34 M sucrose (sucrose buffer) (blender, 1 g of plant material/ml). The homogenate was subsequently filtered through 4 layers of Miracloth and the chloroplasts were isolated by centrifugation, i.e. 10 min of centrifugation at 4400×g (4° C.). The sediment was suspended in 25 ml of sucrose buffer and re-centrifuged for 10 min at 4400×g (4° C.). The sediment was then suspended in 40 ml of 50 mM phosphate buffer, pH 6.8, 10 mM KCl, without sucrose. In this step, the chloroplasts were osmotically ruptured and the thylakoid membranes were then obtained by centrifugation (10 min, 4400×g, 4° C.). The membrane sediment was finally suspended in about 20 ml of 50 mM phosphate buffer, pH 6.8, 10 mM KCl. Following protein determination and activity determination, the membrane suspension was divided into aliquots and frozen in liquid nitrogen. The aliquots were stored at −80° C. Under these conditions, the photosystem II preparation was storage stable for at least three months. The activity determination of photosystem II (PS II) was then carried out using the following test principle: The electron transfer from PS II to an artificial electron acceptor, 2,6-dichlorophenolindophenol (DCPIP), was measured with exposure to light. The concentration of the blue oxidized form of DCPIP was determined spectrophotometrically at wavelength λ=595 nm. […] The activity determination was carried out in microtiter plates (96 cavities) in a reaction volume of 200 μl. Here, 155 μl of dilute membrane suspension were initially charged in 50 mM of phosphate buffer, pH 6.8, 10 mM KCl. Depending on the activity of the PS II preparation, the dilution was adjusted such that the measurement of the decrease in absorption (λ=595 nm) was linear for at least 10 min. In each case 5 μl solution of the test compounds of a concentration of 100 μM in DMSO were added to the enzyme suspension; controls contained 5 μl DMSO; the final concentration of DMSO in the reaction batch was thus 2.5% (v/v); this concentration had no adverse effect on the enzymatic activity. On each microtiter plate, a known PS II inhibitor, for example metribuzin, was used as standard, which allowed the quality of the PS II test to be assessed. The reaction was started by addition of 40 μl DCPIP solution (600 μM in distilled water); the final concentration of DCPIP was 120 μM. Measurement of absorption was carried out over a period of 10 min at 22° C. and with exposure to light. Using metribuzin as comparative substance, the results for the efficacy of the compounds of the general formula (I) at 100 μM are stated in the table below using the following classification: ++++ (inhibition≥90%), +++ (90%>inhibition≥70%), ++ (70%>inhibition≥50%), + (50%>inhibition≥30%).
Effects of selected compounds of the general formula (I) according to the following table E1: […]

Abutilon theophrasti [1] = test: Herbicidal post-emergence action (Experimental Part 2, C); format: in vivo; settings: post-emergence (Part 2), rated visually after about 3 weeks
Method: (§1) Seeds of mono- and dicotyledonous weed plants were placed in plastic pots in sandy loam soil (doubly sown with in each case one species of mono- or dicotyledonous weed plants per pot), covered with soil and cultivated in a greenhouse under controlled growth conditions. 2 to 3 weeks after sowing, the test plants were treated at the one-leaf stage. The compounds of the invention, formulated in the form of wettable powders (WP) or as emulsion concentrates (EC), were applied onto the green parts of the plants as aqueous suspension or emulsion with addition of 0.5% additive at a water application rate of 600 liters per hectare (converted). After the test plants had been kept in the greenhouse under optimum growth conditions for about 3 weeks, the activity of the preparations was rated visually in comparison to untreated controls. For example, 100% activity=the plants have died, 0% activity=like control plants. Tables C1 to C8 below show the effects of selected compounds of the general formula (I) according to Tables I.1 to I.116 on various harmful plants and an application rate corresponding to 1280 g/ha or 320 g/ha, which were obtained by the experimental procedure mentioned above.

Amaranthus retroflexus [2] = test: as above; format: in vivo; settings: post-emergence (Part 2), rated visually after about 3 weeks
Method: as §1

Setaria viridis [3] = test: as above; format: in vivo; settings: post-emergence (Part 2), application rate 1280 g/ha, rated visually after about 3 weeks
Method: as §1

Stellaria media [4] = test: as above; format: in vivo; settings: post-emergence (Part 2), rated visually after about 3 weeks
Method: as §1

Abutilon theophrasti [5] = test: Herbicidal pre-emergence action (Experimental Part 2, D); format: in vivo; settings: pre-emergence (Part 2), scored visually after about 3 weeks
Excerpt: (§2) Seeds of mono- and dicotyledonous weed plants were placed in plastic pots in sandy loam soil (doubly sown with in each case one species of mono- or dicotyledonous weed plants per pot) and covered with soil. The compounds of the invention, formulated in the form of wettable powders (WP) or as emulsion concentrates (EC), were then applied onto the surface of the covering soil as aqueous suspension or emulsion with addition of 0.5% additive at a water application rate of 600 liters per hectare (converted). After the treatment, the pots are placed in a greenhouse and kept under good growth conditions for the trial plants. After about 3 weeks, the effect of the preparations was scored visually in comparison with untreated controls as percentages. For example, 100% activity=the plants have died, 0% activity=like control plants. Tables D1 to D8 below show the effects of selected compounds of the general formula (I) according to Tables I.1 to I.116 on various harmful plants and an application rate corresponding to 1280 g/ha or 320 g/ha, which were obtained by the experimental procedure mentioned above.

Amaranthus retroflexus [6] = test: as above; format: in vivo; settings: pre-emergence (Part 2), scored visually after about 3 weeks
Excerpt: as §2

Matricaria inodora [7] = test: as above; format: in vivo; settings: pre-emergence (Part 2), scored visually after about 3 weeks
Excerpt: as §2

Poa annua [8] = test: as above; format: in vivo; settings: pre-emergence (Part 2), scored visually after about 3 weeks
Excerpt: as §2

Setaria viridis [9] = test: as above; format: in vivo; settings: pre-emergence (Part 2), scored visually after about 3 weeks
Excerpt: as §2

Stellaria media [10] = test: as above; format: in vivo; settings: pre-emergence (Part 2), application rate 320 g/ha, scored visually after about 3 weeks
Excerpt: as §2

Matricaria inodora [11] = test: Herbicidal post-emergence action (Experimental Part 2, C); format: in vivo; settings: post-emergence (Part 2), rated visually after about 3 weeks
Method: as §1

Poa annua [12] = test: as above; format: in vivo; settings: post-emergence (Part 2), application rate 320 g/ha, rated visually after about 3 weeks
Method: as §1

Lolium rigidum = test: Herbicidal pre-emergence action (Experimental Part 2, D); format: in vivo; settings: pre-emergence (Part 2), application rate 1280 g/ha, scored visually after about 3 weeks
Excerpt: as §2

Effect (inhibition of PS II activity) (photosystem II (PS II)): ++ (70%>inhibition≥50%)
Compound: CC1=CC(O)N(c2cc(C)ns2)C1=O (stereo not drawn) [I.2-72]

Effect (inhibition of PS II activity) (photosystem II (PS II)): ++++ (inhibition≥90%)
Compound: CC1=CC(O)N(c2onc(C(C)(C)C)c2C)C1=O (stereo not drawn) [I.2-300]
Abutilon theophrasti, herbicidal activity (Abutilon theophrasti [1]; application rate 1280 g/ha): 100%
Amaranthus retroflexus, herbicidal activity (Amaranthus retroflexus [2]; application rate 320 g/ha): 100%
Setaria viridis, herbicidal activity (Setaria viridis [3]): 90%
Stellaria media, herbicidal activity (Stellaria media [4]; application rate 1280 g/ha): 100%
Abutilon theophrasti, herbicidal activity (Abutilon theophrasti [5]; application rate 320 g/ha): 90%
Amaranthus retroflexus, herbicidal activity (Amaranthus retroflexus [6]; application rate 320 g/ha): 100%
Matricaria inodora, herbicidal activity (Matricaria inodora [7]; application rate 1280 g/ha): 90%
Poa Annua, herbicidal activity (Poa annua [8]; application rate 1280 g/ha): 90%
Setaria viridis, herbicidal activity (Setaria viridis [9]; application rate 320 g/ha): 90%
Stellaria media, herbicidal activity (Stellaria media [10]): 90%

Effect (inhibition of PS II activity) (photosystem II (PS II)): ++++ (inhibition≥90%)
Compound: CC1=CC(O)N(c2cc(-c3ccccc3)ns2)C1=O (stereo not drawn) [I.2-86]

Effect (inhibition of PS II activity) (photosystem II (PS II)): ++++ (inhibition≥90%)
Compound: CC1=CC(=O)N(c2cc(-c3ccccc3)ns2)C1O (stereo not drawn) [I.1-86]

Effect (inhibition of PS II activity) (photosystem II (PS II)): ++++ (inhibition≥90%)
Compound: CC1=CC(=O)N(c2cc(C(C)(C)C)n(C)n2)C1O (stereo not drawn) [I.1-315]

Effect (inhibition of PS II activity) (photosystem II (PS II)): +++ (90%>inhibition≥70%)
Compound: CC(=O)OC1C(C)=CC(=O)N1c1cc(C(F)(F)F)c(Cl)cn1 (stereo not drawn) [I.3-451]
Abutilon theophrasti, herbicidal activity (Abutilon theophrasti [1]; application rate 320 g/ha): 100%
Amaranthus retroflexus, herbicidal activity (Amaranthus retroflexus [2]; application rate 1280 g/ha): 100%
Matricaria inodora, herbicidal activity (Matricaria inodora [11]; application rate 320 g/ha): 90%
Poa Annua, herbicidal activity (Poa annua [12]): 100%
Stellaria media, herbicidal activity (Stellaria media [4]; application rate 320 g/ha): 100%
Lolium rigidum, herbicidal activity (Lolium rigidum): 90%
Poa Annua, herbicidal activity (Poa annua [8]; application rate 320 g/ha): 90%
Setaria viridis, herbicidal activity (Setaria viridis [9]; application rate 1280 g/ha): 100%
Stellaria media, herbicidal activity (Stellaria media [10]): 100%

Effect (inhibition of PS II activity) (photosystem II (PS II)): ++++ (inhibition≥90%)
Compound: CC1=CC(=O)N(c2cc(C(C)(C)C)no2)C1O (stereo not drawn) [I.1-290, 5-Hydroxy-4-methyl-1-(3-tert-butyl-1,2-isoxazol-5-yl)-1,5-dihydro-2H-pyrrol-2-one]
Abutilon theophrasti, herbicidal activity (Abutilon theophrasti [1]; application rate 320 g/ha): 100%
Matricaria inodora, herbicidal activity (Matricaria inodora [11]; application rate 1280 g/ha): 100%
Stellaria media, herbicidal activity (Stellaria media [4]; application rate 1280 g/ha): 100%
Abutilon theophrasti, herbicidal activity (Abutilon theophrasti [5]; application rate 1280 g/ha): 90%
Amaranthus retroflexus, herbicidal activity (Amaranthus retroflexus [6]; application rate 1280 g/ha): 100%
Matricaria inodora, herbicidal activity (Matricaria inodora [7]; application rate 320 g/ha): 100%
Poa Annua, herbicidal activity (Poa annua [8]; application rate 320 g/ha): 90%
Setaria viridis, herbicidal activity (Setaria viridis [9]; application rate 1280 g/ha): 90%
Stellaria media, herbicidal activity (Stellaria media [10]): 100%

Effect (inhibition of PS II activity) (photosystem II (PS II)): ++++ (inhibition≥90%)
Compound: CC1=CC(=O)N(c2cc(C(F)(F)F)ccn2)C1O (stereo not drawn) [I.1-449]
